Test results from article PMC12723449, “From Pharmacophore to Warhead: NAD^+‐Targeting Triazoles as Mechanism‐Based Sirtuin Inhibitors” (Angewandte Chemie (International Ed. in English), 2025).
Entries after “also recorded” stand apart in the source; their conditions may differ.

Tests used:
[1] = molecular target: T1, NanoLuc–SIRT2 fusion protein in HEK293T cells (Homo sapiens, UniProt Q8IXJ6); assay: Kinetic NanoBRET washout assay (target residence time); format: cell-based; settings: 25 µM (5 × EC50), 2 h preincubation, 2 h washout
T1 construct: HEK293T cells stably expressing the NanoLuc-SIRT250-364-fusion target protein were seeded into the coated plates; expressed in transfected cells; host or cells: HEK293T (stably expressing)
T1 sequence (Q8IXJ6 50-364 limits assumed): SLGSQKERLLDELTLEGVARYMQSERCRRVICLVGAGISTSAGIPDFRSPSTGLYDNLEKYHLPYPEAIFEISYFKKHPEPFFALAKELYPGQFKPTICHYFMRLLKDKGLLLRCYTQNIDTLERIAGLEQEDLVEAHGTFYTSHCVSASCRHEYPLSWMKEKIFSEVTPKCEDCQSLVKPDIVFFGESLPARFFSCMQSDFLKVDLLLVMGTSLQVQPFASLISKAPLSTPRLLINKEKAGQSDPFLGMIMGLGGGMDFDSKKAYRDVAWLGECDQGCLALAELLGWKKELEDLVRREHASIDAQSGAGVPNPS
Protocol: NanoBRET washout assay for determination of target residence time
A NanoBRET-based washout assay was used to assess the target residence time of inhibitors for SIRT2 in living cells. White, flat-bottom 96-well plates (PerkinElmer) were pre-coated with poly-L-lysine (Sigma-Aldrich) to enhance cell adherence. Briefly, each well was treated with poly-L-lysine solution for 5 min at room temperature, followed by removal of the coating solution and air-drying before seeding.
Cells were treated with the indicated inhibitor
After incubation, the inhibitor-containing medium was aspirated, and a washout procedure was performed to remove unbound inhibitor. Each well was washed twice by sequential addition and removal of 100 µL Opti-MEM (Thermo Fisher Scientific). Following the final wash, 90 µL Opti-MEM was added per well, followed by 100 µL of 2× Nano-Glo® substrate solution (Promega) and 10 µL of 20× SIRT2-Tracer solution.
BRET measurements were recorded kinetically using a Tecan Spark® plate reader equipped with donor (460 nm)
The BRET ratio was monitored over time to track the re-binding of the

[2] = molecular target: T2, NanoLuc–SIRT2 fusion protein in HEK293T cells (Homo sapiens, UniProt Q8IXJ6); set-up: method as in PMID 35441145; settings: read-out: NanoBRET EC50; cited from earlier work
T2 construct: transfected HEK293T cells expressing the NanoLuc-tagged SIRT250-356 fusion protein were used instead of transient; expressed in transfected cells; host or cells: HEK293T (stably transfected)
T2 sequence (Q8IXJ6 50-356 limits assumed): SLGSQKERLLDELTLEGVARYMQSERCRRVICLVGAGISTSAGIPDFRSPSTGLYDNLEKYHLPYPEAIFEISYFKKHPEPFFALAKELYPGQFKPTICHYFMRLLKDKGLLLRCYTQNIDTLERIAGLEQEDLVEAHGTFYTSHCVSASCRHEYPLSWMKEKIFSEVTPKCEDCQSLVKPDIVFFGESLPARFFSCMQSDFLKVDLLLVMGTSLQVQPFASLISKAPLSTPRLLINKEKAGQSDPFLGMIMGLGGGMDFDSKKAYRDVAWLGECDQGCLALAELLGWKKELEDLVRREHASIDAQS

**Q.** What does the source list for `O=C(NCc1cccnc1)c1ccc2c(c1)C1C3CCC(C3)C1C(c1ccccc1)N2` (centres unmarked) [AEM2, reference compound]?
**A.** inhibition after washout [1]: completely lost activity; also recorded: fades with washout over 2 h; EC50 [2]: 5.2 ± 0.2 µM
